Assay results from article PMC6934184, “Selective DNA-PKcs inhibition extends the therapeutic index of localized radiotherapy and chemotherapy” (The Journal of Clinical Investigation, 2019).

Biological target: T1, ABL1 M351T (Homo sapiens, UniProt P00519, M351T)
T1 construct: purchased Thermo Fisher Scientific (Life Technologies) SelectScreen
Test: SelectScreen LanthaScreen
Format: binding
Conditions: read-out: % displacement
In short: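 NU5455 was profiled across the SelectScreen Broad panel of kinase activity and binding assays. Z'LYTE reactions such as CSF1R ran at apparent Km ATP, while the Adapta CAMK1 assay used ATP listed as 10. Values are given as percent.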

## CN(C(=O)CN1CCOCC1)c1ccc2sc3c(-c4cccc5c(=O)cc(N6CC7CCC(C6)O7)oc45)cccc3c2c1 [NU5455]
  inhibition at 1 µM: -1%
